Results: ChEMBL document CHEMBL1153314, “[2-(4-Phenyl-4-piperidinyl)ethyl]amine based CCR5 antagonists: derivatizations at the N-terminal of the piperidine ring” (Bioorg Med Chem Lett, 2009)

What was measured:
in vivo [1] = settings: rat, 1 mg/kg
in vivo [2] = settings: rat, 1 mg/kg; remark: listed apart in the source
in vivo [3] = settings: rat, po, 1 mg/kg
in vivo [4] = settings: rat, 1 mg/kg; remark: listed apart in the source

Row | Compound | clearance (in vivo [1]) [mL/min/kg] | Vd (in vivo [2]) [L/kg] | bioavailability (in vivo [3]) [%] | half-life (in vivo [4]) [h]
1 | Cc1nc2ccccc2n1[C@H]1C[C@H]2CC[C@@H](C1)N2CCC1(c2ccccc2)CCN(C(C(=O)O)c2ccccc2)CC1 (some centres not stated) | 117 | 3.5 | 0 | 
2 | CNC(=O)C(c1ccc(F)cc1)N1CCC(CCN2[C@@H]3CC[C@H]2C[C@@H](n2c(C)nc4ccccc42)C3)(c2cccc(F)c2)CC1 (some centres not stated) | 43 | 16.5 | 37 | 6.1
